Patent publication US20070196850A1, “Identification of aging genes through large-scale analysis” (priority 2006, published 2007)
Read-outs that look alike come from different tables or passages of the source.

Test system: yeast cells (BY4742)
Assay type: cell-based, Saccharomyces cerevisiae
Method: FIG. 2 illustrates replicative life span (“RLS”) analysis in yeast. […] A mother cell is a yeast cell that has produced one or more daughter cells. […] The total number of mitotic divisions completed by a given mother cell is the replicative life span for that mother cell. One indicator of senescence in yeast is the inability to produce daughter cells.
A large-scaled, life-span analysis is performed as follows. Approximately three days before initiating a life-span-determination assay, a set of 95 strains contained in a yeast alpha-haploid-deletion collection (Open Biosystems), is transferred to a 96-well plate containing YPDagar using a FX robot, so that each strain occupies one well of a 96-well plate. Concurrently, “wildtype” reference cells (BY4742) are plated within an empty well of the 96-well test plate. For 1-2 days, plated cells are allowed to grow on rich medium, such as YPD, at 30° C. Cells are patched onto life-span-measuring plates containing YPD so that approximately 12 strains are plated per plate the night, or approximately 12 hours, before initiating life-span analysis. A life-span experiment is initiated by gridding a region of the plate distal to growing cells, to which 5 cells of each strain of 12 strains are transferred by micromanipulation. Cells are incubated for two hours at 30° C. Then, virgin daughter cells of each deletion variant cell are selected, and original mother cells are removed. Such virgin daughter cells are monitored for de novo production of daughters at 2-3 hour intervals. Produced daughters are individually removed, and tabulated. Mother cells are placed back at 30° C. to allow continued growth. During evening hours, cells are moved to 4° C. so that the cell division rate is reduced to one cell division per evening. The following day, cells are placed at 30° C. to resume growth. This process is continued for a period of time, approximately two weeks, to allow cells of each variant strain to exhaust its proliferative potential. The total number of daughter cells produced by each mother variant cell is tabulated, and determined RLS values are entered into a database.
To perform the life span experiment, 15 μg/mL diazaborine A was added to standard yeast life span plates (YPD). Cells are patched to these plates the night prior to initiation of the life span. The next morning, individual cells were moved to a location on the plate distant from the patch and allow them to divide. The first daughters produced by each mother cell are used to initiate the life span experiment. Subsequently, each daughter cell that these cells produce is removed with a micromanipulator and tabulations are kept.

| SMILES | replicative life span in yeast (exposure of yeast cells to MSX) | life span (yeast, 50 uM) | life span (yeast, 100 uM) | life span (yeast, 1 mM) | increase in mean replicative life span (maximal life span extension) (yeast, 1 mM, preliminary experiments) | life span (yeast, 2.5 mM) | life span of yeast cells on drug treatment (yeast cells treated with drug vs no drug control) |
| --- | --- | --- | --- | --- | --- | --- | --- |
| CS(=N)(=O)CC[C@H](N)C(=O)O (stereo partly shown) [MSX, methionine sulfoximine] | extends replicative life span | significantly increases life span | significantly increases life span | significantly increases life span | 25-30% | significantly increases life span |  |
| C[C@@H]1C[C@@H]([C@H](O)CC2CC(=O)NC(=O)C2)C(=O)[C@@H](C)C1 [cycloheximide] |  |  |  |  |  |  | does not increase life span |
